According to US12064426B2, “Selective inhibitors of ROCK1 and ROCK2 protein kinases and uses thereof” (GENOSCO Inc., priority 2021, dated 2024):

Columns and labels:
[1] = molecular target: T1, Recombinant ROCK1 (amino acids 1-477) (Homo sapiens, UniProt Q13464); test: ROCK inhibition assay, LANCE Ultra TR-FRET kinase assay (ROCK1); format: biochemical; details: 1 μM ATP, 50 nM ULight-CREBtide substrate
T1 construct: Recombinant ROCK1 (amino acids 1-477); by word order, ROCK1 from Carna Biosciences
T1 sequence (Q13464 1-477): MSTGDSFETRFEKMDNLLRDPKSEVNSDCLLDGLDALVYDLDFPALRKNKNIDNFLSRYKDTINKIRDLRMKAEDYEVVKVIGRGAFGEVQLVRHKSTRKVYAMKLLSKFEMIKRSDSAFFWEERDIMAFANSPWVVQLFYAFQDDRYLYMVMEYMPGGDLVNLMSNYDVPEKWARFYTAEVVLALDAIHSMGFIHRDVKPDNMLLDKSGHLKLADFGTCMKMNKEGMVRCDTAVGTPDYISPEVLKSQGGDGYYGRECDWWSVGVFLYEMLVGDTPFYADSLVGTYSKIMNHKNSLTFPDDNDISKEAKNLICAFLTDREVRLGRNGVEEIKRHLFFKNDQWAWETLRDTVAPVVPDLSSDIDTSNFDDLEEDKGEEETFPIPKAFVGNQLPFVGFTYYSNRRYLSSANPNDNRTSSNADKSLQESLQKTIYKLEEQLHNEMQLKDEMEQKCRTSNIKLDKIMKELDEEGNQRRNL
Procedure, shortened: (§1)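 Reaction buffer 50 mM HEPES pH 7.5, 10 mM MgCl2, 1 mM EGTA, 2 mM DTT; kinase, ULight-CREBtide (50 nM) and ATP (ROCK1 1 μM, ROCK2 4 μM) react 1 h at room temperature. Phospho-Ser133 detected by europium antibody after 10 mM EDTA stop, TR-FRET ex 320 nm; IC50 calculated.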

[2] = molecular target: T2, Recombinant ROCK2 (amino acids 5-554) (Homo sapiens, UniProt O75116); test: ROCK inhibition assay, LANCE Ultra TR-FRET kinase assay (ROCK2); format: biochemical; details: 4 μM ATP, 50 nM ULight-CREBtide substrate
T2 construct: ROCK2 (amino acids 5-554); by word order, ROCK2 from SignalChem
T2 sequence (O75116 5-554): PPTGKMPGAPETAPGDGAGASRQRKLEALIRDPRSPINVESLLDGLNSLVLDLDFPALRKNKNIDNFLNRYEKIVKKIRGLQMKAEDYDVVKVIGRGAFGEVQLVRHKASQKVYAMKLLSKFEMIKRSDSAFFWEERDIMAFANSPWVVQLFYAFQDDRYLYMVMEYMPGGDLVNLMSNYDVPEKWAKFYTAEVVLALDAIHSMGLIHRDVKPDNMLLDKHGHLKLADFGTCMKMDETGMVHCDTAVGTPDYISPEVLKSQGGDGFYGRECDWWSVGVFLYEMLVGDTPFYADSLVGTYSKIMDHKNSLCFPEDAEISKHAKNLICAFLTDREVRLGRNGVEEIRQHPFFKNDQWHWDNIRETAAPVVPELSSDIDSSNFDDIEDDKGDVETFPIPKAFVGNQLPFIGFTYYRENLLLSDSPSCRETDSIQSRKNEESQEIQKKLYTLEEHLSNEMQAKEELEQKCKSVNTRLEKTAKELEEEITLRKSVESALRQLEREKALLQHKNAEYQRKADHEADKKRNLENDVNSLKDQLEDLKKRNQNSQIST
Procedure, shortened: as §1

[3] = system: ROCK1/2 in A7r5 cells (pMLC2 levels); test: Inhibition of ROCK1/2 in A7r5 cells, cell-based ELISA of phospho-myosin light chain (pMLC2, Thr18/Ser19); details: Rattus norvegicus, 1.5 h, treated with test compounds for 90 minutes, read-out: pMLC2 (cellular EC50)
Experimental: Inhibition of ROCK1/2 in A7r5 cells was measured through cell-based ELISA assay. Rat aortic smooth muscle cell line A7r5 cells were maintained and treated in DMEM medium with 10% fetal bovine serum. Cells were seeded with 5,000 cells/well in 96 well plates for 24 hours and subsequently treated with test compounds for 90 minutes. Cells were then fixed and processed according to the In-Cell ELISA Colrimetric Detection Kit manual (Thermo Scientific). Cellular phospho-myosin light chain (pMLC2, Thr18/Ser19) levels were determined after treatment with DMSO control or a test compound using the In-Cell ELISA kit.
The resulting data was applied to the following formula ‘[1-(compound/DMSO)]×100%’ to calculate the percent inhibition rate. pMLC2 data obtained from 9 points 3-fold serial dilution of compounds were applied to the nonlinear regression curve fit function of the GraphPad Prism software to calculate the cellular EC50 values.

| Compound | IC50 [1] | IC50 [2] | EC50 [3] |
| --- | --- | --- | --- |
| Cc1nocc1-c1ccc2c(=O)n(Cc3cccc(O)c3)ccc2c1 [Compound 10] | 11 to 100 nM | < 10 nM | < 100 nM |
| Cn1nccc1-c1ccc2c(=O)n(Cc3cccc(O)c3)ccc2c1 [Compound 12] | 11 to 100 nM | < 10 nM | 101 to 500 nM |
| COc1cccc(Cn2ccc3cc(-c4ccncc4)ccc3c2=O)c1 [Compound 22] | < 10 nM | < 10 nM | < 100 nM |
| COc1cccc(Cn2ccc3cc(-c4ccnc(N)c4)ccc3c2=O)c1 [Compound 24] | > 501 nM | 10 to 100 nM | 101 to 500 nM |
| CN(C)Cc1ccccc1Cn1ccc2cc(-c3ccnc(N)c3)ccc2c1=O [Compound 25] | 11 to 100 nM | < 10 nM | 101 to 500 nM |
| Cc1n[nH]cc1-c1ccc2c(=O)n(Cc3cccc(C(=O)NCCc4ccccn4)c3)ccc2c1 [Compound 31] | < 10 nM | < 10 nM | < 100 nM |
| Cc1nocc1-c1ccc2c(=O)n(Cc3cccc(C(=O)N[C@H]4CC[C@H](O)CC4)c3)ccc2c1 [Compound 75] | 101 to 500 nM | 10 to 100 nM | 101 to 500 nM |
| Cc1nocc1-c1ccc2c(=O)n(Cc3cccc(C(=O)NC4CCOCC4)c3)ccc2c1 [Compound 77] | 11 to 100 nM | < 10 nM | 101 to 500 nM |
| Cc1nocc1-c1ccc2c(=O)n(Cc3cccc(C(=O)NCC4CCN(CC(F)F)CC4)c3)ccc2c1 [Compound 82] | 101 to 500 nM | 10 to 100 nM | < 100 nM |
| Cc1nocc1-c1ccc2c(=O)n(Cc3cccc(C(=O)NC4CCN(CC(F)F)CC4)c3)ccc2c1 [Compound 86] | 11 to 100 nM | < 10 nM | < 100 nM |
| Cn1nccc1-c1ccc2c(=O)n(Cc3cccc(C(=O)NC4CCN(CC(F)F)CC4)c3)ccc2c1 [Compound 107] | 11 to 100 nM | < 10 nM | 101 to 500 nM |
| Cn1nccc1-c1ccc2c(=O)n(Cc3cccc(C(=O)NC4CCN(CC(F)(F)F)CC4)c3)ccc2c1 [Compound 108] | 11 to 100 nM | < 10 nM | 101 to 500 nM |
| Cc1nocc1-c1ccc2c(=O)n(Cc3cccc(C(=O)NC4COC4)c3)ccc2c1 [Compound 146] | 101 to 500 nM | 10 to 100 nM | 501 to 1000 nM |
| Cn1nccc1-c1ccc2c(=O)n(Cc3cc(F)cc(C(=O)N[C@H]4CC[C@@H](O)CC4)c3)ccc2c1 [Compound 165] | 101 to 500 nM | 10 to 100 nM | 501 to 1000 nM |
| Nc1cc(-c2ccc3c(=O)n(Cc4cccc(C(=O)NCc5ccccc5CO)c4)ccc3c2)ccn1 [Compound 184] | 101 to 500 nM | 10 to 100 nM | < 100 nM |
| Nc1cc(-c2ccc3c(=O)n(Cc4cccc(C(=O)NCCc5ccccn5)c4)ccc3c2)ccn1 [Compound 186] | 11 to 100 nM | < 10 nM | < 100 nM |
| Nc1cc(-c2ccc3c(=O)n(Cc4cccc(C(=O)Nc5ccc6c(c5)CCNC6)c4)ccc3c2)ccn1 [Compound 188] | 11 to 100 nM | < 10 nM | < 100 nM |
| Cn1ccc(NC(=O)c2cccc(Cn3ccc4cc(-c5ccnc(N)c5)ccc4c3=O)c2)n1 [Compound 200] | 11 to 100 nM | < 10 nM | < 100 nM |
| CNC(=O)c1cccc(Cn2ccc3cc(-c4cn[nH]c4C(F)(F)F)ncc3c2=O)c1 [Compound 233] | 11 to 100 nM | < 10 nM | 101 to 500 nM |
| CNC(=O)c1cccc(Cn2ccc3cc(-c4conc4C)ccc3c2=O)c1 [Compound 277] | 101 to 500 nM | < 10 nM | 501 to 1000 nM |
| CNC(=O)c1cccc(Cn2ccc3cc(-c4cn[nH]c4C(F)(F)F)ccc3c2=O)c1 [Compound 280] | 11 to 100 nM | < 10 nM | 501 to 1000 nM |
| CNC(=O)c1cc(F)cc(Cn2ccc3cc(-c4cn[nH]c4C(F)(F)F)ccc3c2=O)c1 [Compound 281] | 11 to 100 nM | < 10 nM | 101 to 500 nM |
| CNC(=O)c1cc(F)cc(Cn2ccc3cc(-c4conc4C)ccc3c2=O)c1 [Compound 315] | 11 to 100 nM | < 10 nM | 501 to 1000 nM |
| CNC(=O)c1cccc(Cn2ccc3cc(-c4ccnn4C)ccc3c2=O)c1 [Compound 320] | 101 to 500 nM | 10 to 100 nM | > 1000 nM |
| CNC(=O)c1cc(F)cc(Cn2ccc3cc(-c4ccnn4C)ccc3c2=O)c1 [Compound 323] | 101 to 500 nM | 10 to 100 nM | 101 to 500 nM |
| CNC(=O)c1cccc(Cn2ccc3cc(-c4ccnc(N)c4)ccc3c2=O)c1 [Compound 326] | 11 to 100 nM | < 10 nM | 101 to 500 nM |
| Nc1cc(-c2ccc3c(=O)n(Cc4cccc(C(=O)NCCc5ccccn5)c4)cnc3c2)ccn1 [Compound 437] | 11 to 100 nM | < 10 nM | 101 to 500 nM |

More lines, now with the values ahead:

| IC50 [1] | IC50 [2] | EC50 [3] | Compound |
| --- | --- | --- | --- |
| 11 to 100 nM | < 10 nM | 101 to 500 nM | CNC(=O)c1cccc([C@@H](C)n2cnc3cc(-c4cn[nH]c4C(F)(F)F)ccc3c2=O)c1 [Compound 440, (R)—N-methyl-3-(1-(4-oxo-7-(5-(trifluoromethyl)-1H-pyrazol-4-yl)quinazolin-3(4H)-yl)ethyl)benzamide] |
| < 10 nM | < 10 nM |  | CNC(=O)c1cccc(Cn2cc(CCN(C)C)c3cc(-c4cn[nH]c4C(F)(F)F)ccc3c2=O)c1 [Compound 548] |
| 11 to 100 nM | < 10 nM |  | CNC(=O)c1cccc(C(C)n2cc(CCO)c3cc(-c4cn[nH]c4C(F)(F)F)ccc3c2=O)c1 (centres unmarked) [Compound 549] |
| 11 to 100 nM | < 10 nM |  | CNC(=O)c1cccc(Cn2cc(CCO)c3cc(-c4cn[nH]c4Cl)ccc3c2=O)c1 [Compound 550] |
| 11 to 100 nM | < 10 nM |  | CNC(=O)c1cccc(C(C)n2cc(CCO)c3cc(-c4cn[nH]c4Cl)ccc3c2=O)c1 (centres unmarked) [Compound 551] |
| 101 to 500 nM | 10 to 100 nM |  | CNC(=O)c1cccc(Cn2cc(CCO)c3cc(-c4conc4C)ccc3c2=O)c1 [Compound 552] |
| 101 to 500 nM | 10 to 100 nM |  | CNC(=O)c1cccc(C(C)n2cc(CCO)c3cc(-c4conc4C)ccc3c2=O)c1 (centres unmarked) [Compound 553] |
| 11 to 100 nM | < 10 nM |  | CNC(=O)c1cccc(C(C)n2cc(CCO)c3cc(-c4cn[nH]c4F)ccc3c2=O)c1 (centres unmarked) [Compound 554] |
| 11 to 100 nM | < 10 nM |  | CNC(=O)c1cccc(Cn2cc(CCO)c3cc(-c4cn[nH]c4F)ccc3c2=O)c1 [Compound 555] |
| < 10 nM | 10 to 100 nM |  | CNC(=O)c1cccc(Cn2cc(CCO)c3cc(-c4ccnc(N)c4)ccc3c2=O)c1 [Compound 558] |
| 11 to 100 nM | < 10 nM |  | CNC(=O)c1cccc(Cn2cc(CC(C)O)c3cc(-c4cn[nH]c4C(F)F)ccc3c2=O)c1 (centres unmarked) [Compound 559] |
| < 10 nM | < 10 nM |  | CNC(=O)c1cccc(Cn2cc(CC(C)O)c3cc(-c4cn[nH]c4Cl)ccc3c2=O)c1 (centres unmarked) [Compound 560] |
| 11 to 100 nM | < 10 nM |  | CNC(=O)c1cccc(Cn2cc(CC(C)O)c3cc(-c4c[nH]nc4N)ccc3c2=O)c1 (centres unmarked) [Compound 562] |
| 11 to 100 nM | < 10 nM |  | CNC(=O)c1cccc(C(C)n2cc(CCN(C)C)c3cc(-c4cn[nH]c4C(F)(F)F)ccc3c2=O)c1 (centres unmarked) [Compound 563] |
| 11 to 100 nM | < 10 nM |  | CNC(=O)c1cccc(Cn2cc(CCN(C)C)c3cc(-c4cn[nH]c4Cl)ccc3c2=O)c1 [Compound 564] |
| 11 to 100 nM | < 10 nM |  | CNC(=O)c1cccc(C(C)n2cc(CCN(C)C)c3cc(-c4cn[nH]c4Cl)ccc3c2=O)c1 (centres unmarked) [Compound 565] |
| 11 to 100 nM | < 10 nM |  | CNC(=O)c1cccc(Cn2cc(CCN(C)C)c3cc(-c4ccnn4C)ccc3c2=O)c1 [Compound 566] |
| 11 to 100 nM | < 10 nM |  | CNC(=O)c1cccc(Cn2cc(CCN(C)C)c3cc(-c4c[nH]nc4N)ccc3c2=O)c1 [Compound 567] |
| 11 to 100 nM | < 10 nM |  | CNC(=O)c1cccc([C@@H](C)n2cnc3cc(-c4cn[nH]c4C(F)(F)F)ncc3c2=O)c1 [Compound 568, (R)—N-methyl-3-(1-(4-oxo-7-(5-(trifluoromethyl)-1H-pyrazol-4-yl)pyrido[4,3-d]pyrimidin-3(4H)-yl)ethyl)benzamide] |
| < 10 nM | < 10 nM |  | CNC(=O)c1cccc([C@@H](C)n2cnc3cc(-c4cn[nH]c4Cl)ncc3c2=O)c1 [Compound 569] |
| < 10 nM | < 10 nM |  | CNC(=O)c1cccc([C@@H](C)n2cnc3cc(-c4cn[nH]c4F)ncc3c2=O)c1 [Compound 570] |
| 11 to 100 nM | < 10 nM |  | CNC(=O)c1cccc([C@@H](C)n2cnc3cc(-c4cn[nH]c4OC)ncc3c2=O)c1 [Compound 571] |
| 101 to 500 nM | 10 to 100 nM |  | CNC(=O)c1cccc([C@@H](C)n2cnc3cc(-c4conc4C)ncc3c2=O)c1 [Compound 572] |
